According to PubChem BioAssay (NCI):
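Test compounds were applied to cells in 96-well plates for 48 hours at 5 doses. At the GI50, growth is halved. TGI is the concentration that stops growth completely.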

Legend:
Test in all cases: NCI tumour cell line growth inhibition, 48 h
786-0 renal = system: 786-0 renal
HCT-116 colon = system: HCT-116 colon
HL-60(TB) leukemia = system: HL-60(TB) leukemia
HT29 colon = system: HT29 colon
OVCAR-4 ovarian = system: OVCAR-4 ovarian
OVCAR-5 ovarian = system: OVCAR-5 ovarian
SK-OV-3 ovarian = system: SK-OV-3 ovarian
U251 CNS = system: U251 CNS
UO-31 renal = system: UO-31 renal
MCF7 breast = system: MCF7 breast

CC1=NN(c2ccccc2)C(=O)C12[C@H](c1ccccc1)C2(C#N)C#N (stereo partly drawn)
TGI (786-0 renal): 6.18 µM
TGI (HCT-116 colon): 12 µM
TGI (HL-60(TB) leukemia): 7.81 µM
TGI (HT29 colon): 17.1 µM
TGI (OVCAR-4 ovarian): 17.5 µM
TGI (OVCAR-5 ovarian): 24.2 µM
TGI (SK-OV-3 ovarian): 32.7 µM
TGI (U251 CNS): 29.6 µM
TGI (UO-31 renal): 27.9 µM

O=C(c1ccccc1)c1nnn(Cc2ccccc2Cn2nnc(C(=O)c3ccccc3)c2C(=O)c2ccccc2)c1C(=O)c1ccccc1
TGI (786-0 renal): > 100 µM
TGI (HCT-116 colon): > 100 µM
TGI (HL-60(TB) leukemia): > 100 µM
TGI (HT29 colon): > 100 µM
TGI (OVCAR-4 ovarian): > 100 µM
TGI (OVCAR-5 ovarian): > 100 µM
TGI (SK-OV-3 ovarian): > 100 µM
TGI (U251 CNS): > 100 µM
TGI (UO-31 renal): > 100 µM

CCC1CCCCN1CC(C(C)=O)C(c1ccccc1)c1c(O)c2ccccc2oc1=O (stereo not drawn)
TGI (786-0 renal): > 100 µM
TGI (HCT-116 colon): > 100 µM
TGI (HL-60(TB) leukemia): > 100 µM
TGI (HT29 colon): > 100 µM
TGI (OVCAR-4 ovarian): > 100 µM
TGI (OVCAR-5 ovarian): > 100 µM
TGI (SK-OV-3 ovarian): > 100 µM
TGI (U251 CNS): > 100 µM
TGI (UO-31 renal): > 100 µM

C=CCC12CC(=O)CCC1c1ccc(OC)cc1C2=O (stereo not drawn)
TGI (786-0 renal): > 100 µM
TGI (HCT-116 colon): > 100 µM
TGI (HL-60(TB) leukemia): > 100 µM
TGI (HT29 colon): > 100 µM
TGI (OVCAR-4 ovarian): > 100 µM
TGI (OVCAR-5 ovarian): > 100 µM
TGI (SK-OV-3 ovarian): > 100 µM
TGI (U251 CNS): > 100 µM
TGI (UO-31 renal): > 100 µM

CC(/C=C/C(=O)c1sc(C(N)=S)nc1C)=C\c1ccccc1
TGI (786-0 renal): > 100 µM
TGI (HL-60(TB) leukemia): > 100 µM
TGI (HT29 colon): > 100 µM
TGI (OVCAR-4 ovarian): > 100 µM
TGI (OVCAR-5 ovarian): > 100 µM
TGI (SK-OV-3 ovarian): > 100 µM
TGI (U251 CNS): > 100 µM
TGI (UO-31 renal): > 100 µM

CC(C)=Cc1cc(CCC/C(C)=C/Cc2c(O)cc(C)c(C(=O)O)c2O)co1
TGI (786-0 renal): > 100 µM
TGI (HCT-116 colon): > 100 µM
TGI (HT29 colon): > 100 µM
TGI (MCF7 breast): > 100 µM
TGI (OVCAR-4 ovarian): > 100 µM
TGI (OVCAR-5 ovarian): > 100 µM
TGI (U251 CNS): > 100 µM
TGI (UO-31 renal): > 100 µM

Cc1cc(=O)[nH]c(NNC(C#N)c2ccccc2O)n1 (stereo not drawn)
TGI (786-0 renal): > 100 µM
TGI (HCT-116 colon): > 100 µM
TGI (HL-60(TB) leukemia): 50.5 µM
TGI (HT29 colon): > 100 µM
TGI (OVCAR-4 ovarian): > 100 µM
TGI (OVCAR-5 ovarian): > 100 µM
TGI (SK-OV-3 ovarian): > 100 µM
TGI (U251 CNS): > 100 µM
TGI (UO-31 renal): 56.8 µM

CC12OC(C(=O)C13CC3)C1C(=O)c3c(O)ccc(O)c3C(=O)C12 (stereo not drawn)
GI50 (786-0 renal): 2.19 µM
TGI (786-0 renal): 6.56 µM
GI50 (HCT-116 colon): 14.3 µM
TGI (HCT-116 colon): 28.2 µM
GI50 (HT29 colon): 16.2 µM
TGI (HT29 colon): 38.9 µM
GI50 (MCF7 breast): 11.2 µM
TGI (MCF7 breast): 26.3 µM
GI50 (OVCAR-5 ovarian): 19.4 µM
TGI (OVCAR-5 ovarian): 43.8 µM
GI50 (SK-OV-3 ovarian): 24.6 µM
TGI (SK-OV-3 ovarian): 78 µM
GI50 (U251 CNS): 14.7 µM
TGI (U251 CNS): 31.1 µM
GI50 (UO-31 renal): 22.8 µM
TGI (UO-31 renal): 55.6 µM

Cc1ccc(N2C(=O)/C(=C/c3ccc(N(CCC#N)CCC#N)cc3)N=C2COc2ccc(Cl)cc2Cl)cc1
TGI (786-0 renal): > 100 µM
TGI (HCT-116 colon): > 100 µM
TGI (HL-60(TB) leukemia): > 100 µM
TGI (HT29 colon): > 100 µM
TGI (OVCAR-4 ovarian): > 100 µM
TGI (OVCAR-5 ovarian): > 100 µM
TGI (SK-OV-3 ovarian): > 100 µM
TGI (U251 CNS): > 100 µM
TGI (UO-31 renal): > 100 µM

O=C1C(Cl)=C(Cl)C(=O)N1c1ccc(Cl)c(Cl)c1Cl
TGI (786-0 renal): > 100 µM
TGI (HCT-116 colon): > 100 µM
TGI (HL-60(TB) leukemia): 46.2 µM
TGI (HT29 colon): > 100 µM
TGI (OVCAR-4 ovarian): > 100 µM
TGI (OVCAR-5 ovarian): > 100 µM
TGI (SK-OV-3 ovarian): > 100 µM
TGI (U251 CNS): > 100 µM
TGI (UO-31 renal): > 100 µM

Brc1cc(C2OCCCO2)ccc1OCc1ccccc1
TGI (786-0 renal): > 100 µM
TGI (HL-60(TB) leukemia): > 100 µM
TGI (HT29 colon): 33.2 µM
TGI (OVCAR-4 ovarian): > 100 µM
TGI (OVCAR-5 ovarian): 92.5 µM
TGI (SK-OV-3 ovarian): > 100 µM
TGI (UO-31 renal): > 100 µM

C=C(C)[C@@H]1CCc2c(O)c(O)c(=O)cc(C)c2C1
TGI (786-0 renal): > 100 µM
TGI (HCT-116 colon): > 100 µM
TGI (HT29 colon): > 100 µM
TGI (MCF7 breast): 20.7 µM
TGI (OVCAR-4 ovarian): > 100 µM
TGI (OVCAR-5 ovarian): > 100 µM
TGI (SK-OV-3 ovarian): > 100 µM
TGI (U251 CNS): > 100 µM
TGI (UO-31 renal): > 25.5 µM

C=C(C(=O)OC)[C@@H]1CC2OC1C(=O)C(C)CCC/C(C)=C/CC[C@@]2(C)O (stereo partly drawn)
GI50 (786-0 renal): 15.2 µM
TGI (786-0 renal): 31.5 µM
GI50 (HCT-116 colon): 13.4 µM
TGI (HCT-116 colon): 26.2 µM
GI50 (HT29 colon): 36.5 µM
TGI (HT29 colon): > 100 µM
GI50 (MCF7 breast): 43.5 µM
TGI (MCF7 breast): > 100 µM
GI50 (OVCAR-4 ovarian): 37.9 µM
TGI (OVCAR-4 ovarian): > 100 µM
GI50 (OVCAR-5 ovarian): 76.7 µM
TGI (OVCAR-5 ovarian): > 100 µM
GI50 (SK-OV-3 ovarian): > 100 µM
TGI (SK-OV-3 ovarian): > 100 µM
GI50 (U251 CNS): 36.7 µM
TGI (U251 CNS): > 100 µM
GI50 (UO-31 renal): 16.4 µM
TGI (UO-31 renal): 31.2 µM

CCOC(=O)c1sc2c(C(=O)OCC)n3cc(C)cc(C)c3c2c1O
TGI (786-0 renal): > 100 µM
TGI (HCT-116 colon): > 100 µM
TGI (HT29 colon): > 100 µM
TGI (OVCAR-4 ovarian): > 100 µM
TGI (OVCAR-5 ovarian): > 100 µM
TGI (SK-OV-3 ovarian): > 100 µM
TGI (U251 CNS): > 100 µM
TGI (UO-31 renal): > 100 µM

CCCC(O)c1cn(-c2cccc(S(=O)(=O)O)c2)nn1 (stereo not drawn)
TGI (786-0 renal): > 100 µM
TGI (HCT-116 colon): > 100 µM
TGI (HL-60(TB) leukemia): > 100 µM
TGI (HT29 colon): > 100 µM
TGI (OVCAR-4 ovarian): > 100 µM
TGI (OVCAR-5 ovarian): > 100 µM
TGI (SK-OV-3 ovarian): > 100 µM
TGI (U251 CNS): > 100 µM
TGI (UO-31 renal): > 100 µM

COc1ccc(Br)c(CN2CCc3ccccc32)c1OS(=O)(=O)c1ccc(C)cc1
TGI (786-0 renal): > 100 µM
TGI (HL-60(TB) leukemia): > 100 µM
TGI (OVCAR-5 ovarian): > 100 µM
TGI (UO-31 renal): > 100 µM

CCOC(=O)[C@@]12C(C)=CC(=O)O[C@]1(C)C1C(=O)NC(=O)C12 (stereo partly drawn)
TGI (786-0 renal): > 100 µM
TGI (HCT-116 colon): > 100 µM
TGI (HL-60(TB) leukemia): > 100 µM
TGI (HT29 colon): > 100 µM
TGI (OVCAR-4 ovarian): > 100 µM
TGI (SK-OV-3 ovarian): > 100 µM
TGI (U251 CNS): > 100 µM
TGI (UO-31 renal): > 100 µM
